Where two headings read alike, the source gives them in different places.
How the values were obtained:
[1] = LogP value in octanol/water; details: for logP: octanol/water
[2] = Pour point observation according to ASTM D-97; assay type: physicochemical
From the text: A number of working examples were composed and tested for flow indicative of solidification point depression (e.g., pour point temperatures). The compositions tested herein are said to “pour or flow” at the indicated temperature when the PIC of each working example, vertically at rest on a substantially horizontal surface the cylindrical container (radius 1 inch, height 2 inches), flows observably within about 10 seconds when tipped to a substantially horizontal position. This amount of flow is known to be sufficient to indicate that the composition is pourable or pumpable for use in the field, where such concentrates are applied to one or more crude oil transportation or storage systems. The flowing samples are said to have a pour point at temperatures where the flow is observed. The pour point is above the solidification temperature for a given sample. The effect on pour point was observed according to ASTM D-97 test method (including storage for a half hour in a freezer set the associated temperature prior to observation for pour or flow).
The effect on pour point was observed according to ASTM D-97 test method (storage for at least one half hour in a freezer set at a specific temperature (e.g., −60° C.)). The specific low Log P molecules, amounts thereof, amounts of PI polymer, with the balance comprising a refined petroleum distillate or solvent such as HAN; and pour point observations according to ASTM D-97 are listed in Table 2 below.
A comparison of pour points was made between control samples having no low Log P molecules and samples including low Log P molecules to determine the total amount of pour point depression.
The relative amounts of pour point depression of PICs having combination nonyl phenol formaldehyde resin and alpha olefin/maleic anhydride (OMAC) copolymer PIs (specifically OMAC amide polymers), were tested by the ASTM D-97 method. A comparison of pour points was made between control samples having no low Log P molecules and samples including low Log P molecules to determine the total amount of pour point depression.
A low Log P ether molecules was tested for pour point depression in various PICs. The 2-methoxy ethanol was tested in various amounts in PICs and in PICs having various amounts of PI polymer (alkyl phenol formaldehyde resin) therein.

[3] = compounds of table 1 tested for pour point and freezing point

Q: Which logP [1] does the source give for `CCOCCO` here?
A: The logP was -0.05.

Q: For `CC1COC(=O)O1` (stereo not shown), which logP [1] is on record?
A: Its logP is 0.37.

Q: Which logP [1] does the source give for `O=C1CCCCN1` here?
A: Its logP is 0.33.

Q: With `CCCCOCCO` as the compound, how does the logP ([1]; LogP, Table 1) read?
A: The logP was 1.01.

Q: For `O=C1OCCO1`, which logP [1] is on record?
A: Its logP is 0.01.

Q: With `CN1CCCC1=O` as the compound, how does the logP [1] read?
A: The logP was 0.07.

Q: With `CN1CCCCC1=O` as the compound, how does the logP [1] read?
A: Its logP is 0.57.

Q: Which logP [1] does the source give for `CNC(=O)NC` here?
A: Its logP is -0.25.

Q: For `COCC(C)OC(C)=O` (stereo not shown), which logP [1] is on record?
A: Its logP is 0.73.

Q: Which “suitability as pour point depressant in PIC compositions” value (“suitability as pour point depressant” for short) [2, 3] does the source give for 2-methoxy ethanol here?
A: The value was “showed promise as pour point depressants”.

Q: And the “lowered the pour point by” value ([2]; versus the PIC of working example 28)?
A: The value was “about 90 °C”.

Q: What about the logP ([1]; Table 1) of the same compound?
A: The logP was −0.43.

Q: And the “Log P” value ([1]; text b150)?
A: Its value is −0.43.

Q: For `CC(O)CO` (stereo not shown) [1,2-propanediol], which “suitability as pour point depressant” value [2, 3] is on record?
A: The value was “showed promise as pour point depressants”.

Q: Which “suitability as pour point depressant” value [2] does the source give for `C1COCCO1` [1,4-dioxane] here?
A: The value was “showed promise as pour point depressants”.

Q: With `CCCCC(CC)CO` (stereo not shown) [2-Ethyl Hexanol, 2-ethyl hexanol] as the compound, how does the logP [1] read?
A: Its logP is 2.87.

Q: And the logP ([1]; Table 1)?
A: Its logP is 2.87.

Q: With `O=C1CCCN1` [2-Pyrollidone, 2-pyrrolidone] as the compound, how does the “suitability as pour point depressant” value [2, 3] read?
A: Its value is “showed promise as pour point depressants”.

Q: And the logP [1]?
A: The logP was -0.18.

Q: What about the logP ([1]; Table 1) of the same compound?
A: Its logP is −0.18.

Q: What does the source list for `O=C1COCCN1` [3-Ketomorpholine, 3-ketomorpholine]?
A: logP [1]: -0.49; logP ([1]; Table 1): −0.49

Q: Which results are given for `O=C1CCCO1` [Butryolactone, butyrolactone]?
A: suitability as pour point depressant in PIC compositions [2]: showed promise as pour point depressants; logP ([1]; LogP, Table 7, of the low LogP molecule type): -0.59

Q: Which logP [1] does the source give for `CC(C)CO` [Isobutanol] here?
A: Its logP is 0.8.

Q: Which “suitability as pour point depressant” value [2, 3] does the source give for `CC(C)O` [Isopropanol] here?
A: Its value is “showed promise as pour point depressants”.

Q: With `CO` [Methanol] as the compound, how does the “pour point depressed by” value [2] read?
A: Its value is 70 °C.

Q: What about the “suitability as pour point depressant” value [2] of the same compound?
A: Its value is “showed promise as pour point depressants”.

Q: What about the logP [1] of the same compound?
A: Its logP is -0.32.

Q: What about the logP ([1]; Table 1) of the same compound?
A: The logP was −0.32.

Q: For `CN(C)CCO` [dimethylethanolamine], which “suitability as pour point depressant” value [2, 3] is on record?
A: Its value is “showed promise as pour point depressants”.

Q: For `O=C1CCCO1` [drawing 12], which logP ([1]; Table 1) is on record?
A: The logP was −0.57.

Q: With `CN(C)CCO` [drawing 17] as the compound, how does the logP ([1]; LogP, Table 1) read?
A: Its logP is -0.29.

Q: Which logP [1] does the source give for `C1COCCO1` [drawing 23] here?
A: The logP was -0.23.

— patent US10465854B2, “Temperature-stable paraffin inhibitor compositions” (Ecolab USA Inc., priority 2016, dated 2019)
